{"source": "patent US20200157508A1", "about": "“SYSTEMS AND METHODS FOR GROWTH OF INTESTINAL CELLS” (CEDARS-SINAI MEDICAL CENTER, priority 2017, published 2020)", "key": {"[1]": {"tested_on": "HIO-derived intestinal epithelial cells", "experiment": "Western blot of STAT1 phosphorylation in Intestine-Chip exposed to IFNγ", "format": "cell-based, human", "details": "10-1000 ng/ml in lower channel for one hour", "description": "(§1) FIG. 3. a) Western blot analysis showing phosphorylation of STAT1 in Chips containing either HIO-derived intestinal epithelial or Caco2 cells in response to exposure of increasing concentrations (0-1000 ng/ml) of IFNγ in the lower channel for 1 hour. Both GAPDH and STAT1 were used as loading controls. Image J analysis was used to quantify levels of phosphorylation of STAT1 compared to GAPDH b) Quantitative reverse transcription-polymerase chain reaction analyses of IDO1 and GBP1 and c) PLA2G2a, Muc4, lysozyme, Reg3γin Chips incorporating either HIO-derived epithelial or Caco2 cells in response to exposure of 10 ng/ml of IFNγ in the lower channel for 3 days. Three independent experiments were carried out; data represent mean and s.e.m; *P<0.05, **P<0.01 compared to respective untreated controls. […] Two independent experiments were carried out; data represent mean±SEM. **P<0.01. AUC, area under the curve; CTL, control; GAPDH, glyceraldehyde-3-phosphate dehydrogenase.\n(§2) PBS was flushed through both the upper and lower channels and total protein was extracted in situ using cell lysis buffer (Cell Signaling cat #9803s) supplemented with protease and […] inhibitor (Sigma, # MSSAFE). Protein concentration was then determined and equal amounts of protein lysates were heat denatured and separated on a 10% mini-protean precast gel (Bio-Rad, #456-8034). […]"}, "[2]": {"tested_on": "Caco2 cells", "experiment": "Western blot of STAT1 phosphorylation in Caco2 Chip exposed to IFNγ", "format": "cell-based", "details": "10-1000 ng/ml in lower channel for one hour", "description": "as §1, §2"}, "[3]": {"tested_on": "HIO-derived epithelial cells", "experiment": "qRT-PCR gene expression in Intestine-Chip exposed to IFNγ", "format": "cell-based, human", "description": "as §1\n(§3) PBS was flushed through both the upper and lower channels and total RNA from the Intestine-Chip was extracted in situ with the RNeasy mini kit (Qiagen, USA). cDNA was generated from 1 μg of RNA using the Omniscript RT Kit (Qiagen). qRT-PCR was performed using SYBR® Select Master Mix (Applied Biosystems) on a BioRad CFX384 Real-Time System. Primer sequences as follows:\n(§4) As Caco2 cells are routinely used to assess intestinal epithelial responses and have previously been incorporated into Chips, the Inventors also included these in the Inventors' studies to directly compare the Intestine-Chip. […] Thus both cell types were incubated with 10 ng/ml of IFNγ for 3 days and assessed for upregulation of indoleamine 2 3-dioxygenase (IDO1) and guanylate binding protein 1 (GBP1)."}, "[4]": {"tested_on": "Caco2 cells", "experiment": "qRT-PCR gene expression in Caco2 Chip exposed to IFNγ", "format": "cell-based", "details": "10 ng/ml for 3 days", "description": "as §1, §3, §4"}, "[5]": {"details": "10 ng/ml in lower channel for 3 days"}, "[6]": {"details": "attenuated in comparison to HIO-epithelial cells"}}}
{"substance": "IFNγ: a cytokine known to be upregulated in IBD", "values": [{"measurement": "phosphorylation of STAT1", "setting": "[1]", "result": "robust phosphorylation of STAT1"}, {"measurement": "phosphorylation of STAT1", "setting": "[2]", "result": "robust phosphorylation of STAT1"}, {"measurement": "Muc4 expression", "setting": "[3]; 10 ng/ml for 3 days", "result": "significant upregulation"}, {"measurement": "PLA2G2a expression", "setting": "[3]; 10 ng/ml for 3 days", "result": "significant upregulation"}, {"measurement": "Reg3γ expression", "setting": "[3]; 10 ng/ml for 3 days", "result": "no differences"}, {"measurement": "lysozyme expression", "setting": "[3]; 10 ng/ml for 3 days", "result": "no differences"}, {"measurement": "GBP1 expression vs controls", "setting": "[3]; [5]", "result": "significant increase"}, {"measurement": "IDO1 expression vs controls", "setting": "[3]; [5]", "result": "significant increase"}, {"measurement": "expression of PLA2G2a, Muc4, lysozyme, Reg3γ", "setting": "[4]", "result": "did not observe any significant upregulation"}, {"measurement": "GBP1 expression vs controls", "setting": "[4]; [6]", "result": "significant upregulation"}, {"measurement": "IDO1 expression vs controls", "setting": "[4]; [6]", "result": "significant upregulation"}]}
